In publication PMC4579271, “Inflammatory Signaling by NOD-RIPK2 Is Inhibited by Clinically Relevant Type II Kinase Inhibitors” (Chemistry & Biology, 2015):
pEC50: −log10 of the molar value.

Key:
[1] = tested on: RIPK2 ubiquitination in THP-1 cells; test: TUBE purification of ubiquitin conjugates, L18-MDP-stimulated THP-1 cells; conditions: 200 ng/ml L18-MDP
NOD2-RIPK2 interaction = NOD2-RIPK2 interaction (Homo sapiens, UniProt O43353); test: HA-immunoprecipitation of RIPK2 with inducible HA-NOD2 in U2OS cells; conditions: 100 nM, 24 hr
[2] = tested on: TNF production by LPS stimulation in primary human monocytes; conditions: 200 ng/ml LPS
[3] = tested on: IκBα degradation in THP-1 cells; test: Immunoblot of IκBα in L18-MDP-stimulated THP-1 cells; format: cell-based, human; conditions: 100 nM pre-treatment, 200 ng/ml L18-MDP
Method: Figure 5 Inhibition of NOD2-Dependent Ubiquitination and Signaling (A–C) THP-1 cells were pre-treated with kinase inhibitors or DMSO for 30 min and stimulated with 200 ng/ml L18-MDP (A, B) or TNF (C) as indicated. At the indicated time points, cells were lysed and ubiquitinated proteins were isolated using TUBE reagent. The isolated ubiquitinated proteins and input material were analyzed by immunoblotting. See also Figure S6.
The ubiquitin conjugates were purified using GST-Tandem Ubiquitin Binding Entities (TUBE; [Fiil et al., 2013]). In brief, treated THP-1 cells (6–10 × 10^6) were washed with PBS and lysed in 400 μl of ice-cold lysis buffer containing TUBE on ice for 30 min. Cleared lysates were incubated with Glutathione Sepharose 4B resin (Amersham) with agitation at 4°C overnight. The beads were washed four times with PBS-Tween (0.1%) and the bound proteins were released by heating the beads in reducing SDS sample buffer. The samples were resolved on pre-cast gradient gels (NuPage; Life Technologies) in MOPS running buffer and subjected to immunoblotting.

[4] = tested on: RAW264.7 macrophage cells; test: Cell viability and morphology, 24 hours; conditions: 100 nM
RIPK3 = RIPK3 (Homo sapiens, UniProt Q9Y572); parameters: method as in Najjar et al., 2015; conditions: ref Najjar et al., 2015; cited from earlier work
[5] = tested on: NOD2-dependent TNF production in primary human monocytes; test: Flow cytometry of intracellular TNF in primary human monocytes, L18-MDP; format: cell-based
Method: Experimental conditions are measured in 4–5 healthy donors. […] Gray background indicates range without inhibitors. See also Figure S7.

[6] = tested on: NF-κB activation in U2OS cells; test: NF-κB dual luciferase reporter assay in U2OS cells overexpressing HA-NOD2; conditions: 100 nM, 24 hr
RIPK1 = target: T1, RIPK1 (Homo sapiens, UniProt Q13546); parameters: method as in Najjar et al., 2015; conditions: ref Najjar et al., 2015; cited from earlier work
T1 sequence (Q13546 1-671): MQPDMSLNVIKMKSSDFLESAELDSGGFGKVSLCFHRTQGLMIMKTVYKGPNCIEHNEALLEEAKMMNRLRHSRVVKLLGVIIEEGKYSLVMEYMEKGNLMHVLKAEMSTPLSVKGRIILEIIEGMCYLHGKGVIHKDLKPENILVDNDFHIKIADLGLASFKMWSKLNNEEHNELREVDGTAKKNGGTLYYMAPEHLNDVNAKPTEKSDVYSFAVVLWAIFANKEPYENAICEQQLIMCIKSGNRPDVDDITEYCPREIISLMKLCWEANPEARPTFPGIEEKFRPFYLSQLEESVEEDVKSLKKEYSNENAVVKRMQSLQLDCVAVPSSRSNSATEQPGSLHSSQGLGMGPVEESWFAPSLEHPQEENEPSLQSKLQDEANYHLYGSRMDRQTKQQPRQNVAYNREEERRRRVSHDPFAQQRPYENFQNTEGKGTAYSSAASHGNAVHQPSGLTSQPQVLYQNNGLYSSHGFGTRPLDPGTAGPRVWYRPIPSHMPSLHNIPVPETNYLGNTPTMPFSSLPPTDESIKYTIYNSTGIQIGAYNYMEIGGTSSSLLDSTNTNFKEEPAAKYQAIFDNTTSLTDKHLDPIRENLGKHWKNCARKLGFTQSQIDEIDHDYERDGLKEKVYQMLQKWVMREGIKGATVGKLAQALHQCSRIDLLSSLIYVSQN

[7] = parameters: method as in Cortes et al., 2013; conditions: clinical use; ref Cortes et al., 2013; cited from earlier work
[8] = tested on: NF-κB activation in HEKBlue cells expressing NOD2; test: HEKBlue NF-κB-SEAP reporter activation assay, L18-MDP stimulation; conditions: Homo sapiens, HEK-Blue, 8 h, read-out: NFκB activity EC50
[9] = tested on: phospho-Ser176-RIPK2 (p-RIPK2) in NOD2-expressing HEK293 cells; test: Western blot of phospho-Ser176-RIPK2 in HEKBlue cells after L18-MDP

RIPK3, sequence (Q9Y572 whole entry, species assumed): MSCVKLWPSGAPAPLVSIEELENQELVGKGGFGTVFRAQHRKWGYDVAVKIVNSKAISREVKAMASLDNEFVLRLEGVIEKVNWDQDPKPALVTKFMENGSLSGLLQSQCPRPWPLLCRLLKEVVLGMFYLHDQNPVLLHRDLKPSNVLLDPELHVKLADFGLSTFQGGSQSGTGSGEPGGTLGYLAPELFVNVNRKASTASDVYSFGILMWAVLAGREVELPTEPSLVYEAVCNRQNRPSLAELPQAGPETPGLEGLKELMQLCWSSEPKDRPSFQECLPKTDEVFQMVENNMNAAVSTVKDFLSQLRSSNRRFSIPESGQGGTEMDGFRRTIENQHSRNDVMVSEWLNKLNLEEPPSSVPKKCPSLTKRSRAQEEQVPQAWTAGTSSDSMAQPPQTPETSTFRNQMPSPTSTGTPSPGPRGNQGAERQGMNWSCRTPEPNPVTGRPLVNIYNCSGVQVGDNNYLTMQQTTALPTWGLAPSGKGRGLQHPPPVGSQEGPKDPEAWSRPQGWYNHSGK
NOD2-RIPK2 interaction, sequence (O43353 whole entry): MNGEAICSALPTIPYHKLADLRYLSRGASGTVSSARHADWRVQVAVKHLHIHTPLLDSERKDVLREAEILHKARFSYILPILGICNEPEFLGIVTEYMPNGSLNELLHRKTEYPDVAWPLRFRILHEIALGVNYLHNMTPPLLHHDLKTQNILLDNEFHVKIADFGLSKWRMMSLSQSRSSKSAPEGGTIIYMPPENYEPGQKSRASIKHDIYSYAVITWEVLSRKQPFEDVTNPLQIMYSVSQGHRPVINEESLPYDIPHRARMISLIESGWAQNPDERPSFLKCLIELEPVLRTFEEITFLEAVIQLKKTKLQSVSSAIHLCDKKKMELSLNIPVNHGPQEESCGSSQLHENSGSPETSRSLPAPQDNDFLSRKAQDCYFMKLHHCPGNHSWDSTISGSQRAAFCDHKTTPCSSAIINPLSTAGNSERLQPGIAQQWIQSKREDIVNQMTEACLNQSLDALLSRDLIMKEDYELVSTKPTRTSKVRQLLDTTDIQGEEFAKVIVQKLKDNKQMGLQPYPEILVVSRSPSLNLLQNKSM
NOD2-RIPK2 interaction, sequence (Q9HC29 whole entry partner): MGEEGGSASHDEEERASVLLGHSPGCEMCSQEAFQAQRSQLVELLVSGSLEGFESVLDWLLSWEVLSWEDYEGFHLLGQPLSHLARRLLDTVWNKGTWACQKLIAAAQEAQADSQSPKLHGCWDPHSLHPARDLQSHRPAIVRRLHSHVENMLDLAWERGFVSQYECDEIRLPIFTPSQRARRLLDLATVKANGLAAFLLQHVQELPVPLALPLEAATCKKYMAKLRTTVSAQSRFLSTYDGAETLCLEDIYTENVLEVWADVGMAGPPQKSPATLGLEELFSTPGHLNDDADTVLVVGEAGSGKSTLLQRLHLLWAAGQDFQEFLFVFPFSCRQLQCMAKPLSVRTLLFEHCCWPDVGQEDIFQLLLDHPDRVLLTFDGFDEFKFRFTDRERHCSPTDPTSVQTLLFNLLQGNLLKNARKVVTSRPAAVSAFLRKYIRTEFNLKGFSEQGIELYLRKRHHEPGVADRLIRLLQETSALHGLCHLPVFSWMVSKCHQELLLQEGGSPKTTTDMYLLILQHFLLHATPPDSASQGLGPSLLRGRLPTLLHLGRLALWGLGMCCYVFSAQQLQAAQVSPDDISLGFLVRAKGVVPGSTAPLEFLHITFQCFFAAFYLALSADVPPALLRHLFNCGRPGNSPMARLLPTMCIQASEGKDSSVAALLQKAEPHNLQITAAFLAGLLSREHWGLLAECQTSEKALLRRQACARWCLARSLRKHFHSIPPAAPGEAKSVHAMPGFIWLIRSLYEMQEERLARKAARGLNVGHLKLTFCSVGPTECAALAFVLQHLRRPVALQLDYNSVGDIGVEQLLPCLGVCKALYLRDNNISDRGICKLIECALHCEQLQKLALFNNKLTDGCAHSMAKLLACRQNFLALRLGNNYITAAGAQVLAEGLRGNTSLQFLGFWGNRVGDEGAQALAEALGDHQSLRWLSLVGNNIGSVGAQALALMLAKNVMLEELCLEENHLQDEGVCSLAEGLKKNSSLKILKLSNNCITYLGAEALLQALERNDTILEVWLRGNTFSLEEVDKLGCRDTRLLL

Cc1ccc(C(=O)Nc2ccc(CN3CCN(C)CC3)c(C(F)(F)F)c2)cc1C#Cc1cnc2cccnn12 [ponatinib, 3-[2-(imidazo[1,2-b]pyridazin-3-yl)ethynyl]-4-methyl-N-{4-[(4-methylpiperazin-1-yl)methyl]-3-(trifluoromethyl)phenyl}benzamide]
concentration completely blocking RIPK2 ubiquitination [1]: ≥ 25 nM
concentration reducing extent and length of ubiquitin-modified RIPK2 [1]: 5 to 10 nM
NOD2-RIPK2 interaction (NOD2-RIPK2 interaction): stably maintained
concentration attenuating TNF production by LPS stimulation [2]: 1 µM
downstream degradation of IκBα [3]: blocked
morphology of RAW cells [4]: caused rounding of RAW cells
inhibition of RIPK3 kinase activity in necroptosis (RIPK3): efficient inhibitor
concentration completely abrogating NOD2-dependent TNF production [5]: 10 nM
NF-κB activation [6]: completely disabled
inhibition of RIPK1 kinase activity in necroptosis (RIPK1): efficient inhibitor
adverse events [7]: serious adverse events including vascular thrombosis
pEC50 [8]: 9.10
concentration completely blocking RIPK2 phosphorylation [9]: 10 nM
